Assays:
[1] = biological target: T1, Syk kinase (Homo sapiens, UniProt P43405); assay: Kinase activity, mobility shift assay (MSA), Syk; assay type: biochemical; conditions: read-out: inhibitory activity against Syk kinase
T1 construct: purchased Carna Biosciences Inc. (Kobe) 08-176
Description: (§1) A test compound was dissolved in DMSO to obtain a 10 mM test compound solution, which was stored in a dark place at −20° C. until measurement. When bioactivity (kinase activity) is measured, a test compound solution is diluted with DMSO so that the concentration becomes 100 times higher than […], and then diluted 25 times (DMSO concentration is 4%) with an assay buffer described hereinafter.
(§2) Products manufactured by Carna Biosciences Inc. (Kobe) used as protein kinases (recombinant human kinases) in the test are as follows:
(§3) SYK (product number: 08-176), JAK3 (product number: 08-046), FLT3 (product number: 08-154), PDGFRα (PDGFRA) (product number: 08-157), TRKA (NTRK1) (product number: 08-186), KDR (product number: 08-191), CDK2/cycA (product number: 04-103), and AurA (AURKA) (product number: 05-101).
(§4) Kinase activity was measured by a mobility shift assay (MSA) method using QuickScout Screening Assist™ MSA (commercially available kit, manufactured by Carna Biosciences Inc.)
(§5) 5 μl of a test compound solution (the concentration is 4 times of the final concentration) dissolved or suspended in an assay buffer [20 mM HEPES, 0.01% Triton™ X-100, 1 mM dithiothreitol, pH 7.5] or 5 μl of a solvent (4% DMSO-assay buffer) was charged in a 384 well plate made of polypropylene (product number 781280, manufactured by Greiner Bio-One Co., Ltd.). Then, 5 μl of ATP/substrate/metal solution of QuickScout Screening Assist MSA was added. Furthermore, 10 μl of a kinase solution diluted with assay buffer was added and the reaction was initiated. However, only assay buffer (10 μl) was added to blank. The concentration of kinase and reaction conditions were controlled in accordance with the protocol of QuickScout Screening Assist MSA. Then, the reaction was terminated by adding 60 μl of termination buffer of QuickScout Screening Assist MSA and the amount of a substrate (S) and a phosphorylated substrate (P) in the reaction solution were determined in accordance with the protocol of QuickScout Screening Assist MSA using LabChip3000 (manufactured by Caliper Life Sciences Co., MA, USA), and also inhibition of the test compound at a concentration of 0.01, 0.1 and 1 μM was measured, respectively. The amounts of S and P were expressed by the height of each separated peak. Inhibition (%) of the test compound was calculated in accordance with the following equation:
(§6) Inhibition (%)=(1−(C−A)/(B−A))×100
(§7) where A denotes blank, B denotes a solvent and C denotes P/(P+S) of a well of the compound.

[2] = biological target: T2, Flt3 kinase (Homo sapiens, UniProt P36888); assay: Kinase activity, mobility shift assay (MSA), Flt3; assay type: biochemical; conditions: read-out: inhibitory activity against Flt3 kinase
T2 construct: purchased Carna Biosciences Inc. (Kobe) 08-154
T2 sequence (P36888 27-993): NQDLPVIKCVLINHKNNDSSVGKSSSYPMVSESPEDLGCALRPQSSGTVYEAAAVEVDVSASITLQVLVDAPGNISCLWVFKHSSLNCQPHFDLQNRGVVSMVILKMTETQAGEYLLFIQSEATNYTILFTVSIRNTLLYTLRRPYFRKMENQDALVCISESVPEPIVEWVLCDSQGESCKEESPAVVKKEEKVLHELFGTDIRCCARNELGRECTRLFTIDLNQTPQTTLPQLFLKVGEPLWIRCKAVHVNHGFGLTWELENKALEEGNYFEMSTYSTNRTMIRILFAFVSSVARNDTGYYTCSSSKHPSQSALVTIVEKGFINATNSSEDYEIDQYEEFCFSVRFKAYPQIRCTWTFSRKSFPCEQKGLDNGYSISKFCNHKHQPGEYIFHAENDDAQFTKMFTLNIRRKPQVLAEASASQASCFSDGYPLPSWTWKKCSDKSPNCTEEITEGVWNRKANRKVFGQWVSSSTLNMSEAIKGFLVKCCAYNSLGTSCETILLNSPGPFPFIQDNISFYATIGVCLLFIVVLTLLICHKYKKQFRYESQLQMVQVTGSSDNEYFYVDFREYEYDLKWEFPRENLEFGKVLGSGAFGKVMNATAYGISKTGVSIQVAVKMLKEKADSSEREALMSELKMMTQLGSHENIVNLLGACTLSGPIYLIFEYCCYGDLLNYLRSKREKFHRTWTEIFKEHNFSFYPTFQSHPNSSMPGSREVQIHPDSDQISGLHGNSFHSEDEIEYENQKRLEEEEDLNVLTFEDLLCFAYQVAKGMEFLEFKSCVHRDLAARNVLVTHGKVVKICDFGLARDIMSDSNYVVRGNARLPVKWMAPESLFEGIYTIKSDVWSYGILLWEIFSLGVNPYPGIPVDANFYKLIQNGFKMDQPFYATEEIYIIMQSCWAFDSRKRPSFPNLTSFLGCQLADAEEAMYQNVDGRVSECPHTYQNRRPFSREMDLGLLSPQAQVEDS
Description: as §1, §2, §3, §4, §5, §6, §7

[3] = tested on: Rat basophilic cells RBL-2H3; assay: Action against IgE-induced degranulation (β-hexosaminidase release); assay type: cell-based; conditions: RBL-2H3 cells, anti-DNP-IgE / DNP-BSA, read-out: inhibitory activity against IgE-induced degranulation
Description: An inhibitory action against SYK was evaluated by an inhibitory action against degranulation of basophils induced by IgE. Rat basophilic cells RBL-2H3 were incubated with an anti-DNP-IgE antibody (1 μg/mL, Zymed) overnight. After washing cells twice with HBSS, an antigen DNP-BSA (1 μg/mL, LSL) was added, followed by incubation for 30 minutes. The supernatant was taken and an activity of β-hexosaminidase in the solution isolated by degranulation was measured using p-nitrophenyl-N-β-D-glucosaminide as a substrate. Using an absorbance meter (Spectra MAX Pro, Molecular Devices), each absorbance at 405 nm and 570 nm of the solution was measured and an increase in the amount was taken as an enzyme activity. 10 minutes before the addition of an antigen, a test material and a solvent (0.1% DMSO) were added to cells. Inhibition rate (%) against degranulation was calculated by the following equation.
Inhibition rate (%)=(1−(A−C)/(B−C))×100
where A denotes an increase in absorbance of a test material group, B denotes an increase in absorbance of a solvent group, and C denotes an increase in absorbance of a solvent group which is not stimulated by an antigen.

Compound | inhibition at 0.1 µM [1] | also measured
Cc1cccc2cnc(Nc3ccc4[nH]nnc4c3)nc12 [Example 2, N-(1H-benzo[d][1,2,3]triazol-5-yl)-8-methylquinazoline-2-amine] | ≥ 50% | –
Cc1cccc2cnc(Nc3ccc4c(c3)OCO4)nc12 [Example 6, N-(benzo[d][1,3]dioxol-5-yl)-8-methylquinazoline-2-amine] | – | inhibition at 0.1 µM [2]: ≥ 50%
Cc1cccc2cnc(Nc3ccc4c(c3)OCCO4)nc12 [Example 7, N-(2,3-dihydrobenzo[b][1,4]dioxin-6-yl)-8-methylquinazoline-2-amine] | – | inhibition at 0.1 µM [2]: ≥ 50%
Cc1cccc2cnc(Nc3ccc4c(c3)NC(=O)CO4)nc12 [Example 8, 6-(8-methylquinazolin-2-ylamino)-2H-benzo[b][1,4]oxazin-3(4H)-one] | – | inhibition at 0.01 µM [2]: ≥ 50%
CC(=O)Nc1cccc(Nc2ncc3cccc(C)c3n2)c1 [Example 11, N-(3-(8-methylquinazolin-2-ylamino)phenyl)acetamide] | – | inhibition at 0.01 µM [2]: ≥ 50%
Cc1ccc(Nc2ncc3cccc(C)c3n2)cc1O [Example 29, 5-(8-methylquinazolin-2-ylamino)-2-methylphenol] | ≥ 50% | –
Clc1cccc2cnc(Nc3ccc4cn[nH]c4c3)nc12 [Example 32, 8-chloro-N-(1H-indazol-6-yl)quinazoline-2-amine] | – | inhibition at 0.01 µM [2]: ≥ 50%
Cc1n[nH]c2cc(Nc3ncc4cccc(C)c4n3)ccc12 [Example 34, 8-methyl-N-(3-methyl-1H-indazol-6-yl)-quinazoline-2-amine] | ≥ 50% | –
Cc1c(N2CCN(C)CC2)ccc2cnc(Nc3ccc4cn[nH]c4c3)nc12 [Example 63, N-(1H-indazol-6-yl)-8-methyl-7-(4-methylpiperazin-1-yl)quinazoline-2-amine] | – | inhibition at 0.05 µM [3]: ≥ 50%
CCNC(=O)n1ncc2c(N)cc(Nc3ncc4cccc(C)c4n3)cc21 [Example 79, 4-amino-N-ethyl-6-(8-methylquinazolin-2-ylamino)-1H-indazole-1-carboxamide] | – | inhibition at 0.05 µM [3]: ≥ 50%
CCOC(=O)NCc1cc(Nc2ncc3cccc(C)c3n2)cc2[nH]ncc12 [Example 80, Ethyl [6-(8-methylquinazolin-2-ylamino)-1H-indazol-4-yl]methylcarbamate] | – | inhibition at 0.05 µM [3]: ≥ 50%
Cc1c(N2CCC(CO)CC2)ccc2cnc(Nc3ccc4cn[nH]c4c3)nc12 [Example 84, {1-[2-(1H-indazol-6-ylamino)-8-methylquinazolin-7-yl]piperidin-4-yl}methanol] | ≥ 50% | –
Cc1n[nH]c2cc(Nc3ncc4ccc(N5CCC(CO)CC5)c(C)c4n3)ccc12 [Example 94, {1-[2-(3-methyl-1H-indazol-6-ylamino)-8-methylquinazolin-7-yl]piperidin-4-yl}methanol] | ≥ 50% | –
COc1ccc2cnc(Nc3ccc4c(C)n[nH]c4c3)nc2c1C [Example 96, N-(3-methyl-1H-indazol-6-yl)-7-methoxy-8-methylquinazoline-2-amine] | ≥ 50% | –
Cc1c(F)ccc2cnc(Nc3cc(N)c4nc[nH]c4c3)nc12 [Example 123, 7-fluoro-8-methyl-N-(4-amino-1H-benzo[d]imidazol-6-yl)quinazoline-2-amine] | ≥ 50% | –

Further lines, with some results ahead:

inhibition at 0.1 µM [1] | Compound | also measured
≥ 50% | Cc1cccc2cnc(Nc3ccc4cn[nH]c4c3)nc12 [Example 1, N-(1H-indazol-6-yl)-8-methylquinazoline-2-amine] | –
≥ 50% | Cc1cc(Nc2ncc3cccc(C)c3n2)cc2[nH]ncc12 [Example 37, 8-methyl-N-(4-methyl-1H-indazol-6-yl)-quinazoline-2-amine] | –
≥ 50% | Cc1c(O)ccc2cnc(Nc3ccc4cn[nH]c4c3)nc12 [Example 48, 7-hydroxy-N-(1H-indazol-6-yl)-8-methylquinazoline-2-amine] | –
≥ 50% | Cc1cccc2cnc(Nc3cc(N)c4cn[nH]c4c3)nc12 [Example 52, 8-methyl-N-(4-amino-1H-indazol-6-yl)quinazoline-2-amine] | –
≥ 50% | Cc1c(NCCO)ccc2cnc(Nc3ccc4cn[nH]c4c3)nc12 [Example 73, 2-[2-(1H-indazol-6-ylamino)-8-methylquinazolin-7-ylamino]ethanol] | –
≥ 50% | Cc1c(N)ccc2cnc(Nc3ccc4cn[nH]c4c3)nc12 [Example 74, 7-amino-N-(1H-indazol-6-yl)-8-methylquinazoline-2-amine] | –
≥ 50% | COc1ccc2cnc(Nc3cc(C)c4cn[nH]c4c3)nc2c1C [Example 97, N-(4-methyl-1H-indazol-6-yl)-7-methoxy-8-methylquinazoline-2-amine] | –
≥ 50% | Cc1cccc2cnc(Nc3cc(NC(=O)NCCO)c4cn[nH]c4c3)nc12 [Example 98, 1-(2-hydroxyethyl)-3-[6-(8-methylquinazolin-2-ylamino)-1H-indazol-4-yl]urea] | –
≥ 50% | Cc1c(F)ccc2cnc(Nc3cc(N)c4cn[nH]c4c3)nc12 [Example 99, 7-fluoro-N-(4-amino-1H-indazol-6-yl)-8-methylquinazoline-2-amine] | –
≥ 50% | Cc1c(N2CCC(CO)CC2)ccc2cnc(Nc3cc(N)c4cn[nH]c4c3)nc12 [Example 101, {1-[2-(4-amino-1H-indazol-6-ylamino)-8-methylquinazolin-7-yl]piperidin-4-yl}methanol] | –
≥ 50% | COc1ccc2cnc(Nc3cc(N)c4cn[nH]c4c3)nc2c1C [Example 102, N-(4-amino-1H-indazol-6-yl)-7-methoxy-8-methylquinazoline-2-amine] | –
≥ 50% | Cc1cc(Nc2ncc3ccc(NCCO)c(C)c3n2)cc2[nH]ncc12 [Example 109, 2-[2-(4-methyl-1H-indazol-6-ylamino)-8-methylquinazolin-7-ylamino]ethanol] | –
≥ 50% | Cc1c(NCCO)ccc2cnc(Nc3cc(N)c4cn[nH]c4c3)nc12 [Example 124] | –
